Key:
[1] = tested on: CEM/S (leukemia CCRF-CEM); assay: cells; format: cell-based; settings: Homo sapiens, 72 h, read-out: IC50 (μM), CEM/S
[2] = tested on: 8226S (myeloma RPMI 8226); assay: cells; format: cell-based, human; settings: Homo sapiens, RPMI-8226, 72 h, read-out: IC50 (μM), 8226S
[3] = tested on: panel of ten human tumour cell lines; format: cell-based
[4] = tested on: U-1752 (non-small cell lung cancer); assay: cells; format: cell-based; settings: Homo sapiens, read-out: IC50 (μM), U-1752
[5] = tested on: NCI-H611 (non-small cell lung cancer); assay: cells; format: cell-based; settings: Homo sapiens, read-out: IC50 (μM), NCI-H611
[6] = tested on: NCI-H125 (non-small cell lung cancer); assay: cells; format: cell-based; settings: Homo sapiens, NCI-H125, read-out: IC50 (μM), NCI-H125
[7] = tested on: U-1568 (non-small cell lung cancer); assay: cells; format: cell-based; settings: Homo sapiens, read-out: IC50 (μM), U-1568
[8] = tested on: U1906L (small cell lung cancer); assay: cells; format: cell-based; settings: Homo sapiens, read-out: IC50 (μM), U1906L
[9] = tested on: U1285 (small cell lung cancer); assay: cells; format: cell-based; settings: Homo sapiens, read-out: IC50 (μM), U1285
[10] = tested on: U-1906E (small cell lung cancer); assay: cells; format: cell-based; settings: Homo sapiens, read-out: IC50 (μM), U-1906E
[11] = tested on: U1690 (small cell lung cancer); assay: cells; format: cell-based; settings: Homo sapiens, read-out: IC50 (μM), U1690

CC[C@@]1(O)C(=O)OCc2c1cc1n(c2=O)Cc2cc3c(CN(C)C)c(O)ccc3nc2-1 [Topotecan, topotecan] was tested, and the IC50 [1] was 0.02 µM, the IC50 [2] was 0.87 µM and the “IC50 (μM), MEAN” value [3] was 20.0 µM. For the same compound, the IC50 [4] was 28 µM, the IC50 [5] was ≥ 236 µM and the IC50 [6] was ≥ 236 µM. The IC50 [7] was 115 µM, the IC50 [8] was 0.12 µM and the IC50 [9] was 0.17 µM. It also gave an IC50 [10] of 0.08 µM and an IC50 [11] of 0.92 µM.

Source: patent US20040097421A1 (priority 2000, published 2004)
